These results are taken from publication PMC4972190, “In vitro activity of salinomycin and monensin derivatives against Trypanosoma brucei” (Parasites & Vectors, 2016).

For data set [1], the system named is Bloodstream forms of T. brucei (clone 427-221a). As to the kind of experiment: Toxicity assay (resazurin, 72 h) on bloodstream forms of T. brucei. It counts as cell-based, Trypanosoma brucei. Conditions: for Selectivity GI50 ratio: GI50(HL-60)/GI50(T. brucei); for MIC: T. brucei bloodstream forms, concentration at which all cells were killed, determined microscopically, mean of three experiments; for MIC / GI50: 72 h. On the procedure:
(§1) Bloodstream forms of T. brucei (clone 427-221a) and human myeloid leukaemia HL-60 cells were grown in Baltz medium and RPMI medium, respectively. Both culture media were supplemented with 16.7 % (v/v) heat-inactivated foetal calf serum. All cultures were maintained in a humidified atmosphere containing 5 % CO2 at 37 °C.
(§2) Cells were seeded in 96-well plates in a final volume of 200 μl of their respective culture medium containing 10-fold serial dilutions of ionophore derivatives (10^-4 to 10^-10 M) and 1 % DMSO. Wells containing medium and 1 % DMSO served as controls. The initial cell densities were 1 × 10^4/ml for T. brucei and 1 × 10^5/ml for HL-60 cells. After 24 h incubation at 37 °C in a humidified atmosphere containing 5 % CO2, 20 μl of a 0.44 mM resazurin solution prepared in PBS was added and the cells were incubated for a further 48 h so that the total incubation time was 72 h. Thereafter, the plates were read on a microplate reader using a test wavelength of 570 nm and a reference wavelength of 630 nm. The 50 % growth inhibition (GI50) value, i.e. the concentration of a compound necessary to reduce the growth rate of cells by 50 % compared to the control was determined by linear interpolation according to the method described in [22]. The minimum inhibitory concentration (MIC) values, i.e. the concentration of the drug at which all trypanosome and human cells were killed, was determined microscopically. Each compound was independently tested three times.

The test system of data set [2] is bloodstream forms of T. brucei. The experiment in a line: Measurement of changes in cell volume by light scattering. It counts as cell-based, Trypanosoma brucei. Conditions: 100 μM; 5 × 10^7 cells/ml; measured every 15 min; decrease in absorbance = increase in cell volume. On the procedure: Change in cell volume was determined by light scattering as previously described. In brief, bloodstream forms of T. brucei were seeded at a density of 5 × 10^7 cells/ml in 96-well plates in a final volume of 200 μl culture medium containing 100 μM of salinomycin or the salonimycin derivatives SAL-E7 or SAL-AM2 and 1 % DMSO. Absorbance of the cultures was measured at 490 nm every 15 min. A decrease in absorbance corresponded to an increase in cell volume. The experiment was repeated three times.
Change in cell volume can be measured by light scattering at 450–550 nm whereby a decrease in absorbance indicates swelling of cells. In order to be able to record measurable absorbance changes, a high cell density is required. […] However, the derivatives caused a slightly faster swelling of the cells than salinomyicn. […] During further incubation, trypanosomes increased their cell volume but cell swelling was much slower and much less. […] However, it seems that the transport efficiency determines the trypanocidal potency of salinomycin derivatives.
Fig. 3 Effect of salinomycin derivatives on the cell volume of bloodstream forms of T. brucei. […] Every 15 min, the absorbance at 490 nm was measured. […] Note that a decrease in absorbance corresponds to an increase in cell volume

Data set [3] deals with human myeloid leukaemia HL-60 cells. The experiment in a line: Toxicity assay (resazurin, 72 h) on HL-60 cells. It counts as cell-based. Conditions: for MIC: HL-60 cells, 72 h, determined microscopically, mean of three experiments; for GI50: Homo sapiens, HL-60, 72 h. On the procedure: as §1, §2
The test system of data set [4] is Bloodstream forms of T. brucei (clone 427-221a). Also on record: method as in PMID 23517602. To be noted: human cells vs bloodstream forms of T. brucei; cited from earlier work.
The subject of data set [5] is human peripheral blood mononuclear cells. Also on record: method as in PMID 23517602, PMID 25769976. To be noted: read-out: 50 % effective concentration (cytotoxicity); cited from earlier work.
For the next data set, the system named is human nasal mucosa cells. Also on record: method as in PMID 23517602, PMID 25769976. To be noted: read-out: 50 % effective concentration (cytotoxicity); cited from earlier work.

≈ marks a conversion by molar mass, not a printed value. Like-named read-outs stand apart in the source and are kept apart here. Where only a bound is given, the exact number is not on record here.

Take `CCCCNC(=O)C(CC)C1CCC(C)C(C(C)C(O)C(C)C(=O)C(CC)C2OC3(C=CC(O)C4(CCC(C)(C5CCC(O)(CC)C(C)O5)O4)O3)C(C)CC2C)O1` (stereo not drawn) [SAL-AM2, salinomycin n-butyl amide]: the “Selectivity GI50 ratio” value in data set [1] is “greater than 250”. The MIC in data set [1] was 0.1 to 1 µM; in data set [1] (listed as salinomycin n-butyl amide) it was “below 1 μM”; in data set [1] (read-out: MIC), 0.1 µM (≈ 0.0806 µg/mL); in data set [3] it was 100 µM (≈ 80.6 µg/mL). In addition, the GI50 in data set [1] (Trypanosoma brucei) turned out to be 0.04 ± 0.007 µM; in data set [3], 14.5 ± 1.3 µM. Also, in data set [2], the “Effect on cell volume (absorbance at 490 nm)” value was “cell swelling similar to parasites treated with salinomycin”.
Consider `CC[C@@H](C(=O)[C@@H](C)[C@@H](O)[C@H](C)[C@@H]1O[C@@H]([C@@H](CC)C(=O)O)CC[C@@H]1C)[C@H]1O[C@]2(C=C[C@@H](O)[C@]3(CC[C@@](C)([C@H]4CC[C@](O)(CC)[C@H](C)O4)O3)O2)[C@H](C)C[C@@H]1C` [Salinomycin, salinomycin], for which the “selectivity (cytotoxic/trypanocidal ratio)” value in data set [4] is under 100. The EC50 is 30 µM in data set [5] and 11 µM in the data set on human nasal mucosa cells. Further, the “Selectivity GI50 ratio” value in data set [1] was determined as 2.4. Besides, the “Selectivity MIC ratio” value in data set [1] (MIC(HL-60)/MIC(T. brucei)) amounted to 1. The GI50 in data set [1] (Trypanosoma brucei) came to 0.18 ± 0.06 µM; in data set [3], 0.44 ± 0.21 µM. The MIC in data set [1] (Trypanosoma brucei) and in data set [3] was 1 µM (≈ 0.751 µg/mL) throughout. Also, in data set [2], the “Effect on cell volume (absorbance at 490 nm)” value is reported as “continued to swell until the end of experiment”.
